The record followed here is ChEMBL document CHEMBL2413068, “Solid-phase synthesis of 5'-triphosphate 2'-5'-oligoadenylates analogs with 3'-O-biolabile groups and their evaluation as RNase L activators and antiviral drugs” (Bioorg Med Chem, 2013).

SMILES strings stand for the structures. Activity calls are given as the source filed them. The rule behind the calls is not given here.

Series [1] concerns the target T1, 2-5A-dependent ribonuclease (Homo sapiens, UniProt Q05823).
T1 sequence (Q05823 whole entry): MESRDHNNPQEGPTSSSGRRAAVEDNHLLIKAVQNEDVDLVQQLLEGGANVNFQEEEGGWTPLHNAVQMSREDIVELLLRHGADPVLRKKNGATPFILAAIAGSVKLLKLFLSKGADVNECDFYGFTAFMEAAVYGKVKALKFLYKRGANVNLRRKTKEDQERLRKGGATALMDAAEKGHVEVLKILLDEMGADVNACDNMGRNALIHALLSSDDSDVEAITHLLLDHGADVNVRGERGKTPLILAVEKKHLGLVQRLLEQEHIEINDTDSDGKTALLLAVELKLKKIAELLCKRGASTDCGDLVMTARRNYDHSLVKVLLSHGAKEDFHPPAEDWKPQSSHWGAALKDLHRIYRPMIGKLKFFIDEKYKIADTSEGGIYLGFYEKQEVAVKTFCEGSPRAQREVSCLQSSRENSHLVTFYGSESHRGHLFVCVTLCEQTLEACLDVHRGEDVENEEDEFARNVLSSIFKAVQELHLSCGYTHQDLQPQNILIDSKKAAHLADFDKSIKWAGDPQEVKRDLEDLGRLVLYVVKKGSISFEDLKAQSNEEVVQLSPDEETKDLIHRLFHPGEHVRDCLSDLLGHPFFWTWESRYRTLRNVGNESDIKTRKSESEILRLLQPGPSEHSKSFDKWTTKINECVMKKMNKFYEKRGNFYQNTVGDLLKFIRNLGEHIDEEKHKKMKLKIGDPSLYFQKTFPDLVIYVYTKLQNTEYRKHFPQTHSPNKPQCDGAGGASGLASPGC
As to the kind of experiment: Activation of human recombinant RNase L endonuclease activity using 6-FAM-UUAUCAAAUUCUUAUUUGCCCCAUUUUUUUGGUUUA-BHQ-1 as substrate assessed as substrate cleavage measured for 50 mins by FRET assay.

Series [2] can be described thus: Cytotoxicity against human A549 cells after 72 hrs by Cell Titer-Glo assay. It counts as cell-based.
In series [3] the test system is Vero. Kind of series: Cytotoxicity against african green monkey Vero cells assessed as cell viability up to 100 uM by Hucker's crystal violet staining. It counts as cell-based. Particulars: chlorocebus sabaeus.
The test system of series [4] is Respiratory syncytial virus. Kind of series: Antiviral activity against Respiratory syncytial virus A2 infected in african green monkey Vero cells assessed as reduction of virus-induced cytopathic effect at >= 15 nM pretreated 2 hrs before viral infection measured daily using hucker's crystal violet staining. The class given is functional, organism-based.
Series [5] in a line: Selectivity index, ratio of CC50 for human A549 cells to EC50 for Influenza A virus (A/WSN/1933(H1N1)). The class given is toxicity, cell-based. Particulars: read-out: Ratio CC50/EC50.
The subject of series [6] is Vero. As to the kind of experiment: Cytotoxicity against Respiratory syncytial virus A2 infected african green monkey Vero cells at 33.3 uM by Hucker's crystal violet staining. It counts as cell-based. Particulars: chlorocebus sabaeus.
The test system of the next series is Influenza A virus. Kind of series: Antiviral activity against Influenza A virus (A/WSN/1933(H1N1)) infected in human A549 cells assessed as reduction of viral RNA level my measuring luminescence after 72 hrs by RT-PCR analysis. The class given is functional, organism-based. Particulars: A549, 72 h.

As a reminder, the EC50 is the midpoint of the concentration-response curve. Take `Nc1ncnc2ncn([C@@H]3O[C@H](COP(=O)(O)O[C@@H]4[C@H](O)[C@@H](COP(=O)(O)O[C@@H]5[C@H](O)[C@@H](COP(=O)(O)O[C@@H]6[C@H](O)[C@@H](COP(=O)(O)OP(=O)(O)OP(=O)(O)O)O[C@H]6n6cnc7ncnc(N)c76)O[C@H]5n5cnc6ncnc(N)c65)O[C@H]4n4cnc5ncnc(N)c54)[C@@H](O)[C@H]3O)c12`: the EC50 in series [1] was determined as 6.1 nM.

The term CC50 denotes the concentration at which the toxic effect on the cells reaches its halfway point. Molecule `CC(C)(C)C(=O)OCO[C@H]1[C@@H](O)[C@H](n2cnc3ncnc(N)c32)O[C@@H]1COP(=O)(O)O[C@@H]1[C@H](OCOC(=O)C(C)(C)C)[C@@H](COP(=O)(O)O[C@@H]2[C@H](OCOC(=O)C(C)(C)C)[C@@H](COP(=O)(O)OP(=O)(O)OP(=O)(O)O)O[C@H]2n2cnc3ncnc(N)c32)O[C@H]1n1cnc2ncnc(N)c21` gave a CC50 at 72 h in series [2] of 47000 nM. In addition, the Activity entry with Vero [3] is “Non-toxic”; in the series on Vero [6], “Toxic”. The result in series [4] was Active. Besides, the figures for the EC50 (in series [1]; in the series with Influenza A virus) were 19.1 nM and 14600 nM, respectively. Besides, the selectivity ratio in series [5] stood at 3.

With `CC(C)(C)C(=O)OCO[C@H]1[C@@H](O)[C@H](n2cnc3ncnc(N)c32)O[C@@H]1COP(=O)(O)O[C@@H]1[C@H](OCOC(=O)C(C)(C)C)[C@@H](COP(=O)(O)O[C@@H]2[C@H](OCOC(=O)C(C)(C)C)[C@@H](COP(=O)(O)O[C@@H]3[C@H](OCOC(=O)C(C)(C)C)[C@@H](COP(=O)(O)OP(=O)(O)OP(=O)(O)O)O[C@H]3n3cnc4ncnc(N)c43)O[C@H]2n2cnc3ncnc(N)c32)O[C@H]1n1cnc2ncnc(N)c21`, in series [1], the EC50 was 241 nM.
